Measured values reported in patent US9623111B2, “Pegylated artesunate derivative, pharmaceutical composition and use thereof” (Institute of Pharmacology and Toxicology Academy of …, priority 2012, dated 2017).

Tested on: Plasmodium berghei
Experiment: Evaluation of anti-malarial effects (murine malaria 4 day inhibition method, infected Kunming mice)
Type: in vivo
Conditions: intraperitoneal injection, dose equivalent to 10 mg/kg artesunate, 4 administrations, D4, mean (range)
Experimental: Preparation of animals and pathological models: Kunming mice were purchased from the Animal Center of the Military Medical Science Academy of the PLA, body weight 20±2 g, female, conventionally raised, free diet. The mice were inoculated 1×10^7 plasmodia via intraperitoneal injection on the test day (DO) to infect red blood cells to establish murine malaria infection models.
Dosage regimen: the solutions of artesunate and PEGlyation derivatives thereof were diluted with injection water to a concentration equivalent to 1 mg/ml artesunate, and each mouse was administrated by 0.2 ml intraperitoneal injection (a dose equivalent to 10 mg/kg artesunate). First administration was performed 3 hours after the mice were infected, then administrated once per 24 hours, until the 3rd day (D3) after infection, that was, totally administrated for 4 times. The placebo control group was injected with physiological saline of same volume.
On the 4th day (D4) after administration of 10 mg/kg body weight artesunate and its PEGlyation derivatives, their inhibition rates to Plasmodium berghei were all 80% or more, and there was no significant difference of inhibition rate between the derivatives and artesunate (Table 1).

| Compound | inhibition rates to Plasmodium berghei, Mean (column group headed Parasitemia (%)) |
| --- | --- |
| C[C@H]1[C@H](OC(=O)CCC(=O)O)O[C@@H]2O[C@@]3(C)CC[C@H]4[C@H](C)CC[C@@H]1[C@@]24OO3 [Artesunate] | 84.0(76.0-94.6) % |
| mPEG20k-Lys-(Artesunate)2 [Compound 2] | 87.0(79.3-97.4) % |
| Artesunate-NH-PEG20k-NH-Artesunate [Compound 4] | 80.8(79.7-87.0) % |
| [(Artesunate-)2-Lys-]2-PEG20k [Compound 1] | 87.2(82.7-92.7) % |
| mPEG20k-Lys2-(Artesunate)4 [Compound 3] | 92.1(87.8-95.1) % |

Tested on: not listed separately
Experiment: Determination of drug-time curve in vivo (serum dihydroartemisinin by LC-MS after intravenous injection)
Conditions: SD rats, single intravenous (caudal vein) injection, dose equivalent to 10 mg/kg artesunate
Experimental: Samples: Artesunate, Compounds 1-4.
Preparation of samples: artesunate was dissolved with 5% NaHCO3 physiological saline to obtain 10 mg/ml colorless pellucid solution; Compound 1 was dissolved with injection physiological saline to prepare a colorless pellucid solution containing equivalently 10 mg/ml artesunate.
Animals: SD rats were purchased from the Animal Center of the Military Medical Science Academy of the PLA, body weight 200±10 g, male, conventionally raised, free diet.
Experimental method: solutions of artesunate and Compound 1 samples were administrated to each rat by intravenous injection in an amount of 0.2 ml (a dose equivalent to 10 mg/kg artesunate). Blood samples were collected at 0 min, 10 min, 20 min, 30 min, 45 min, 1 hr, 1.5 hr, 2 hr, 2.5 hr, 3 hr, 4 hr, 6 hr, 8 hr, 10 hr, respectively, and serum concentration of dihydroartemisinin were measured by LC-MS method.
Experimental Results: See FIG. 1.

| Compound | half-life extended in comparison with artesunate |
| --- | --- |
| [(Artesunate-)2-Lys-]2-PEG20k [Compound 1] | about 5 times |
